According to article PMC8539250, “Synthesis and Anti-HIV Activity of a Novel Series of Isoquinoline-Based CXCR4 Antagonists” (Molecules, 2021):
Like-named read-outs stand apart in the source and are kept apart here.

Key:
HIV-2 ROD = assay: Anti-HIV-2 assay in MT-4 cells (tetrazolium-based colorimetric, cytopathic effect); format: cell-based; conditions: Human immunodeficiency virus 2, MT4
Procedure: (§1) First, the ability of the compounds to compete with fluorescently labeled CXCL12 (CXCL12^AF647) for binding at CXCR4 was determined. Second, since binding of CXCL12 to CXCR4 results into a transient increase of cytosolic calcium levels, the inhibition of this CXCL12-induced calcium mobilization by the various compounds was also investigated. […] In parallel, the cytotoxicity of the compounds for uninfected MT-4 cells was assessed. […] The CD4 cell line MT-4 was obtained from the American Type Culture Collection (Rockville, MD, USA) and cultured in RPMI 1640 medium (Gibco BRL, Gaithersburg, MD, USA) with 10% heat-inactivated fetal calf serum (Biowhittaker Europe, Verviers, Belgium) and 2 mmol/L L-glutamine (Gibco BRL). […] The anti-HIV-1 and anti-HIV-2 activity in MT-4 cells was determined using a tetrazolium-based colorimetric assay. […] Threefold dilutions of the drugs in 100 μL medium were added to duplicate wells of 96-well flat bottom plates (Iwaki Glass). […] The cytopathic effect induced by the virus was checked regularly microscopically. […] Each assay was performed at least three times. […] Absorbance was recorded using the VersaMax ELISA™ microplate reader (Molecular Devices) and analyzed with the Softmax Pro® software (Molecular Devices, Version 4.0, www.moleculardevices.com, accessed on 10 January 2015). Using mock-infected cells, the cytotoxic concentration 50 (CC50) of each compound was investigated.

HIV-1 NL4.3 = assay: Anti-HIV-1 assay in MT-4 cells (tetrazolium-based colorimetric, cytopathic effect); format: cell-based; conditions: Human immunodeficiency virus 1, MT4
Procedure: as §1

CXCR4 [1] = biological target: T1, CXCR4 (Homo sapiens, UniProt P61073); assay: CXCL12AF647 competition binding assay with Jurkat cells (flow cytometry); set-up: endogenous in cells; host or cells: Jurkat cells
T1 sequence (P61073 whole entry): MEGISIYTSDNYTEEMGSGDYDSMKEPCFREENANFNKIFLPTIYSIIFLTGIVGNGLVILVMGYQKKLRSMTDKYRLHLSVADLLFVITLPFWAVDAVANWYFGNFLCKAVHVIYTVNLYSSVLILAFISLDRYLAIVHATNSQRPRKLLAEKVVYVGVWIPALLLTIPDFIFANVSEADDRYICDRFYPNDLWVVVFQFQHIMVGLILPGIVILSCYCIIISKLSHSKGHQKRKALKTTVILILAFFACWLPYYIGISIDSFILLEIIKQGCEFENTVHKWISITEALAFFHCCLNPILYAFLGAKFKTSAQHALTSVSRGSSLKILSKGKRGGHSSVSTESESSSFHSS
Procedure: (§2) First, the ability of the compounds to compete with fluorescently labeled CXCL12 (CXCL12^AF647) for binding at CXCR4 was determined. […] Finally, given the role of CXCR4 as a major coreceptor for HIV entry, the antiviral activity of the compounds against the X4-tropic wild type HIV-1 NL4–3 strain and the HIV-2 ROD strain was determined in MT-4 cells. In parallel, the cytotoxicity of the compounds for uninfected MT-4 cells was assessed.
The CXCL12^AF647 binding assay with Jurkat cells has been described previously. Briefly, Jurkat cells were resuspended in assay buffer [Hank’s Balanced Salt Solution (HBSS, Thermo Fisher Scientific), 20 mM HEPES buffer, 0.2% bovine serum albumin (Sigma-Aldrich), pH 7.4] at 3 × 10^5 cells per sample and then treated with various concentrations of the compound at room temperature for 15 min. Afterwards, the cells were incubated with 2.9 nM CXCL12^AF647 (in assay buffer) at room temperature for 30 min in the dark. Cells were fixed in 1% paraformaldehyde in DPBS and specific CXCL12^AF647 binding [i.e., mean fluorescence intensity (MFI)] was quantified by flow cytometry (FACSCanto^TM II; Becton Dickinson). Data were analyzed with FlowJo® Software. The 50% inhibitory concentration (IC50) was calculated for each compound relative to the negative (i.e., autofluorescence of untreated and unlabeled cells) and positive (i.e., untreated cells exposed to CXCL12^AF647 only) control.

CXCR4 [2] = biological target: T1, CXCR4; assay: CXCL12-induced calcium mobilization assay in U87.CD4.CXCR4 cells (FLIPR); format: cell-based; conditions: concentration needed to inhibit CXCL12-induced calcium signaling by 50%, 6.25 nM CXCL12, mean ± SD
Procedure: as §2
The calcium mobilization assay has been described in detail previously. U87.CD4.CXCR4 cells (2 × 10^4 cells per well in DMEM/10% FBS/0.01 M HEPES) were seeded in gelatin-coated (Sigma-Aldrich; 0.1% gelatin in DPBS) black-walled 96-well plates and incubated overnight at 37 °C and 5% CO2. The next day, cells were loaded with the fluorescent calcium indicator Fluo-2 acetoxymethyl (AM) ester (4 μM; Abcam) and incubated at room temperature in the dark for 45 min. Then, cells were incubated with various concentrations of the compounds for 10 min prior to the addition of 6.25 nM CXCL12 (in assay buffer). Fluctuations in intracellular calcium levels were measured in real time by the FLIPR Tetra® (Molecular Devices, Sunnyvale, CA, USA) in all 96 wells simultaneously. The response over baseline (after CXCL12 addition) was calculated with the ScreenWorks 4.0® software (Molecular Devices, Version 4.0, www.moleculardevices.com, accessed on 10 January 2015) by dividing the obtained relative light units (RLUs) through the base line measured just before CXCL12 addition. From this the IC50 value for each compound was determined taking into account the negative (i.e., untreated cells without CXCL12 stimulation) and positive (i.e., untreated cells with CXCL12 addition) control samples.

[3] = Cytotoxicity in mock-infected MT-4 cells; format: cell-based; conditions: human, mock-infected (uninfected) MT-4 cells, concentration reducing viability of mock-infected MT4 cells by 50%; mean ± SD
Procedure: (§3) First, the ability of the compounds to compete with fluorescently labeled CXCL12 (CXCL12^AF647) for binding at CXCR4 was determined. Second, since binding of CXCL12 to CXCR4 results into a transient increase of cytosolic calcium levels, the inhibition of this CXCL12-induced calcium mobilization by the various compounds was also investigated. […] In parallel, the cytotoxicity of the compounds for uninfected MT-4 cells was assessed. […] The CD4 cell line MT-4 was obtained from the American Type Culture Collection (Rockville, MD, USA) and cultured in RPMI 1640 medium (Gibco BRL, Gaithersburg, MD, USA) with 10% heat-inactivated fetal calf serum (Biowhittaker Europe, Verviers, Belgium) and 2 mmol/L L-glutamine (Gibco BRL). The anti-HIV-1 and anti-HIV-2 activity in MT-4 cells was determined using a tetrazolium-based colorimetric assay. This assay been described in detail before. Threefold dilutions of the drugs in 100 μL medium were added to duplicate wells of 96-well flat bottom plates (Iwaki Glass). […] The cytopathic effect induced by the virus was checked regularly microscopically. […] The absorbance was then recorded at 490 nm with a 96-well plate reader and compared with four cell control replicates (cells without virus and drugs) and four virus control wells (cells with virus but without drug). Each assay was performed at least three times. […] Absorbance was recorded using the VersaMax ELISA™ microplate reader (Molecular Devices) and analyzed with the Softmax Pro® software (Molecular Devices, Version 4.0, www.moleculardevices.com, accessed on 10 January 2015). Using mock-infected cells, the cytotoxic concentration 50 (CC50) of each compound was investigated.

MT-4 cells = assay: Cytotoxicity in mock-infected MT-4 cells; format: cell-based
Procedure: as §3

[4] = 50% protection of MT-4 cells against HIV-induced cytopathicity, mean ± SD, read-out: HIV-2 ROD EC50
[5] = MT-4 cells, read-out: EC50 against HIV-2
[6] = 50% protection of MT-4 cells against HIV-induced cytopathicity, mean ± SD, read-out: HIV-1 NL4.3 EC50
[7] = MT-4 cells, read-out: EC50 against HIV-1
[8] = concentration needed to inhibit CXCL12 receptor binding by 50%, Jurkat cells, 2.9 nM CXCL12AF647, mean ± SD

Row | EC50 (HIV-2 ROD; [4]) [nM] | EC50 (HIV-2 ROD; [5]) [nM] | EC50 (HIV-1 NL4.3; [6]) [nM] | EC50 (HIV-1 NL4.3; [7]) [nM] | IC50 (CXCR4 [1]; [8]) [nM] | IC50 (CXCR4 [2]) [nM] | IC50 (CXCR4 [1]; competition with CXCL12 for binding to CXCR4) [nM] | Structure (SMILES) | CC50 at 4 d [3] [µM] | cytotoxicity for the MT4 cell line (in words) (MT-4 cells) | CC50 (MT-4 cells; concentration reducing viability of mock-infected MT4 cells by 50%, mean ± SD) [µM]
1 | 24 ± 1.8 | < 100 | 23 ± 8 | < 100 | 3.2 ± 0.99 | 13 ± 5.3 |  | COc1cc2ccnc(CN(CCCCN)Cc3ncccc3C)c2cc1OC [Compound 24a, N1-((6,7-dimethoxyisoquinolin-1-yl)methyl)-N1-((3-methylpyridin-2-yl)methyl)butane-1,4-diamine] | > 100 | lack cytotoxicity | 
2 | 42 ± 13 |  | 74 ± 27 |  | 7.2 ± 3.2 | 25 ± 8.1 |  | COc1cc2ccnc(CN(CCCCN)C3CCCc4cccnc43)c2cc1OC (stereo not drawn) [Compound 19a, N1-((6,7-Dimethoxyisoquinolin-1-yl)methyl)-N1-(5,6,7,8-tetrahydroquinolin-8-yl)butane-1,4-diamine] | > 100 |  | 
3 | 8.1 ± 4.2 |  | 4.9 ± 3.2 |  |  |  |  | c1cc(CN2CCCNCCNCCCNCC2)ccc1CN1CCCNCCNCCCNCC1 [Plerixafor, reference compound] | 6.29 ± 0.72 |  | 
4 | 58 ± 22 | < 100 | 58 ± 71 | < 100 |  |  |  | NCCCCN(Cc1ccccn1)C1CCCc2cccnc21 (stereo not drawn) [Compound 20, N1-(Pyridin-2-ylmethyl)-N1-(5,6,7,8-tetrahydroquinolin-8-yl)butane-1,4-diamine] | 55.5 ± 0.72 | lack cytotoxicity | 
5 | 3.8 ± 0.29 | < 100 | 6.2 ± 5.9 | < 100 | 0.64 ± 0.17 | 6.1 ± 1 |  | Cc1cccnc1CN(CCCCN)Cc1nccc2cc(F)ccc12 [Compound 24c, N1-((6-Fluoroisoquinolin-1-yl)methyl)-N1-((3-methylpyridin-2-yl)methyl)butane-1,4-diamine] | 31 | lack cytotoxicity | 30.8 ± 0.88
6 | 26 ± 30 | < 100 | 84 ± 15 | < 100 | 9.2 ± 4.2 | 130 ± 41 |  | NCCCCN(Cc1nccc2ccccc12)C1CCCc2cccnc21 (stereo not drawn) [Compound 19e, N1-(Isoquinolin-1-ylmethyl)-N1-(5,6,7,8-tetrahydroquinolin-8-yl)butane-1,4-diamine] | 26.7 ± 18.6 | lack cytotoxicity | 
7 | 11 ± 5.6 |  | 16 ± 12 |  | 8.9 ± 5.6 | 33 ± 21 |  | NCCCCN(Cc1nccc2cc(F)ccc12)C1CCCc2cccnc21 (stereo not drawn) [Compound 19c, N1-((6-Fluoroisoquinolin-1-yl)methyl)-N1-(5,6,7,8-tetrahydroquinolin-8-yl)butane-1,4-diamine] | 18.1 ± 6.82 |  | 
8 | 550 ± 360 |  | 550 ± 360 |  | 26 ± 1.7 | 440 ± 210 |  | NCCCCN(Cc1nccc2cc(Br)ccc12)C1CCCc2cccnc21 (stereo not drawn) [Compound 19d, N1-((6-Bromoisoquinolin-1-yl)methyl)-N1-(5,6,7,8-tetrahydroquinolin-8-yl)butane-1,4-diamine] | 43.6 ± 1.77 |  | 
9 | 2540 ± 910 |  | 2540 ± 910 |  | 39 ± 24 | 690 ± 230 |  | Cc1cccnc1CN(CCCCN)Cc1nccc2cc(Br)ccc12 [Compound 24d, N1-((6-Bromoisoquinolin-1-yl)methyl)-N1-((3-methylpyridin-2-yl)methyl)butane-1,4-diamine] | 29.5 ± 9.76 |  | 
10 | 77 ± 19 |  | 61 ± 31 |  | 2.5 ± 1.2 | 28 ± 4.9 |  | COc1ccc2c(CN(CCCCN)C3CCCc4cccnc43)nccc2c1 (stereo not drawn) [Compound 19b, N1-((6-Methoxyisoquinolin-1-yl)methyl)-N1-(5,6,7,8-tetrahydroquinolin-8-yl)butane-1,4-diamine] | 11.1 ± 0.54 |  | 
11 | 170 ± 160 |  | 230 ± 210 |  | 6.2 ± 0.57 | 180 ± 23 | 0.6 | Cc1cccnc1CN(CCCCN)Cc1ccccn1 [Compound 25, N1-((3-Methylpyridin-2-yl)methyl)-N1-(pyridin-2-ylmethyl)butane-1,4-diamine] | 79.9 ± 13.1 |  | 
12 | 2290 ± 350 |  | 770 ± 290 |  | 26 ± 14 | 930 ± 720 |  | Cc1cccnc1CN(CCCCN)Cc1nccc2ccccc12 [Compound 24e, N1-(Isoquinolin-1-ylmethyl)-N1-((3-methylpyridin-2-yl)methyl)butane-1,4-diamine] | 40.9 ± 6.53 |  | 
13 | > 9270 |  | > 9270 |  | 890 ± 460 | 3850 ± 190 |  | COc1ccc2c(CN(CCCCN)Cc3ncccc3C)nccc2c1 [Compound 24b, N1-((6-Methoxyisoquinolin-1-yl)methyl)-N1-((3-methylpyridin-2-yl)methyl)butane-1,4-diamine] | 9.27 ± 0.46 |  | 
